{"source": "patent US12612411B1", "about": "“Imidazopyrazine derivatives, process for preparation thereof, and their uses as luciferins” (INSTITUT PASTEUR, priority 2017, dated 2026)", "data": [{"molecular_target": "T1, nanoKAZ luciferase (Oplophorus gracilirostris, UniProt Q9GV45, A31E/A60N/A81I/F95D/I117V/K70R/L54V/L99Q/M102K/N193R/P142E/Q151K/Q38R/Q45L/V71I/Y165I)", "T1 construct": "luciferase catalytic domain (nanoKAZ, 19 kDa) from the Oplophorus-derived luciferase; host or cells: cell-free: 1-Step Human Coupled IVT Kit, pT7CFE1-based vector", "T1 sequence (Q9GV45 other isoform, or with tags, fused parts or gaps with the stated changes)": "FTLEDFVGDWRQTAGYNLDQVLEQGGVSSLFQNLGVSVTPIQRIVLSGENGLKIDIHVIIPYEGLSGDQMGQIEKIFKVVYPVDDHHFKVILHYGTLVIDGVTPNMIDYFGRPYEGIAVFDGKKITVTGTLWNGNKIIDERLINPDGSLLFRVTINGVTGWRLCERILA", "assay": "In vitro bioluminescence screening of imidazo[1,2-a]pyrazin-3(7H)-ones with nanoKAZ expressed in vitro (96-well luminometer, 2 h kinetic)", "format": "biochemical", "conditions": "Table 1; furimazine = 1", "description": "General protocol for the generation of solutions of imidazo[1,2-a]pyrazin-3(7H)-one Q by acidic hydrolysis of imidazo[1,2-a]pyrazin-3-yl acetate derivatives P. The considered acetate P (1 mg) was dissolved in DMSO (0.2 mL) and then diluted by adding a solution of acidic ethanol (0.3 ml) made from the addition of 37% hydrochloric acid (100 μl) on 100% ethanol (12 mL). This 0.5 mL solution was incubated at 50° C. for 2 hours to give a stock solution which was then stored at −80° C. […] Nota: these conditions are only adapted to the hydrolysis of the protecting group (as defined above) of the oxygen on position 2 of the imidazo[1,2-a]pyrazine ring system and not to the hydrolysis of any additional acetyl groups eventually present elsewhere on the substrate of this reaction.\nThe representative bioluminescence curves shown in the FIG. 2 provided an assessment for furimazine (Q-1), 8-benzyl-2-(furan-2-ylmethyl)-6-(4-hydroxyphenyl)imidazo[1,2-a]pyrazin-3 (7/1)-one (Q-80), 8-(2-fluorobenzyl)-2-(furan-2-ylmethyl)-6-phenylimidazo[1,2-a]pyrazin-3(7H)-one (Q-84), and 8-(2-fluorobenzyl)-2-((5-methylfuran-2-yl)methyl)-6-phenylimidazo[1,2-a]pyrazin-3(7H)-one (Q-85) was obtained using a luciferase expressed in vitro as described in the following. The nanoKAZ DNA template was cloned into Thermo Scientific pT7CFE1-based vector and nanoKAZ was expressed using ThermoFisher Scientific 1-Step Human Coupled IVT Kit—DNA (ref. 88881) according to the manufacturer instructions. The resulting reaction mix was diluted 400 times in buffer (DPBS (Gibco)+0.1% (v/v) Tween 20) and conserved at −80° C. The screening of the imidazo[1,2-a]pyrazin-3(7H)-ones was performed in 96 well plates using 50 μL/well of a 1/20 dilution in DPBS (Gibco)+0.1% (v/v) Tween 20 of the nanoKAZ solution.\nTo illustrate the bioluminescence properties improvement achieved for many of the imidazo[1,2-a]pyrazin-3(7H)-ones described here, four values are provided in Table 1: maximum intensity (V1), signal half-life (V2), area under the curve for ten minutes (V3), and area under the curve for two hours (V4), normalized using furimazine (Q-1) as a reference.\nThe bioluminescence properties of the tested compounds are considered to be improved when at least one of the values V1-V4 is above 1, and when none of the V1-V4 values is 0.05 or below.\nBy following the hydrolysis protocol described above, the following imidazo[1,2-a]pyrazin-3(7H)-ones luciferins Q were made in situ from the corresponding O-protected imidazo[1,2-a]pyrazines P and evaluated for their bioluminescence properties (maximum intensity (V1), signal half-life (V2), area under the curve for […], normalized using furimazine (Q-1) as a reference): […]", "values": [{"smiles": "CCc1ccc(Cc2nc3c(Cc4ccccc4)[nH]c(-c4ccccc4)cn-3c2=O)o1", "note": "[Q-12, 8-benzyl-2-((5-ethylfuran-2-yl)methyl)-6-phenylimidazo[1,2-a]pyrazin-3(7H)-one]", "V1: maximum intensity, normalized using furimazine (Q-1) as a reference": 2.28, "V3: area under the curve for ten minutes, normalized using furimazine (Q-1) as a reference": 2.2, "V4: area under the curve for two hours, normalized using furimazine (Q-1) as a reference": 1.28}, {"smiles": "Cc1cccc(Cc2nc3c(Cc4ccccc4)[nH]c(-c4ccccc4)cn-3c2=O)c1", "note": "[Q-14, 8-benzyl-2-(3-methylbenzyl)-6-phenylimidazo[1,2-a]pyrazin-3(7H)-one]", "V1: maximum intensity, normalized using furimazine (Q-1) as a reference": 1.8, "V3: area under the curve for ten minutes, normalized using furimazine (Q-1) as a reference": 1.66, "V4: area under the curve for two hours, normalized using furimazine (Q-1) as a reference": 0.96}, {"smiles": "Cc1cc(Cc2nc3c(Cc4ccccc4)[nH]c(-c4ccccc4)cn-3c2=O)oc1C", "note": "[Q-16, 8-benzyl-2-((4,5-dimethylfuran-2-yl)methyl)-6-phenylimidazo[1,2-a]pyrazin-3(7H)-one]", "V1: maximum intensity, normalized using furimazine (Q-1) as a reference": 2.07, "V3: area under the curve for ten minutes, normalized using furimazine (Q-1) as a reference": 1.88, "V4: area under the curve for two hours, normalized using furimazine (Q-1) as a reference": 0.93}, {"smiles": "COc1cccc(Cc2nc3c(Cc4ccccc4)[nH]c(-c4ccccc4)cn-3c2=O)c1", "note": "[Q-18, 8-benzyl-2-(3-methoxybenzyl)-6-phenylimidazo[1,2-a]pyrazin-3(7H)-one]", "V1: maximum intensity, normalized using furimazine (Q-1) as a reference": 1.53, "V3: area under the curve for ten minutes, normalized using furimazine (Q-1) as a reference": 1.41, "V4: area under the curve for two hours, normalized using furimazine (Q-1) as a reference": 0.97}, {"smiles": "O=c1c(Cc2ccccc2)nc2c(Cc3ccccc3)[nH]c(-c3ccccc3F)cn1-2", "note": "[Q-20, 2,8-dibenzyl-6-(2-fluorophenyl)imidazo[1,2-a]pyrazin-3(7H)-one]", "V1: maximum intensity, normalized using furimazine (Q-1) as a reference": 2, "V3: area under the curve for ten minutes, normalized using furimazine (Q-1) as a reference": 1.59, "V4: area under the curve for two hours, normalized using furimazine (Q-1) as a reference": 0.66}, {"smiles": "O=c1c(Cc2ccco2)nc2c(Cc3ccccc3)[nH]c(-c3ccccc3F)cn1-2", "note": "[Q-21, 8-benzyl-6-(2-fluorophenyl)-2-(furan-2-ylmethyl)imidazo[1,2-a]pyrazin-3(7H)-one]", "V1: maximum intensity, normalized using furimazine (Q-1) as a reference": 1.39, "V3: area under the curve for ten minutes, normalized using furimazine (Q-1) as a reference": 1.33, "V4: area under the curve for two hours, normalized using furimazine (Q-1) as a reference": 1.08}, {"smiles": "O=c1c(Cc2ccco2)nc2c(Cc3ccccc3)[nH]c(-c3c(F)cccc3F)cn1-2", "note": "[Q-27, 8-benzyl-6-(2,6-difluorophenyl)-2-(furan-2-ylmethyl)imidazo[1,2-a]pyrazin-3(7H)-one]", "V1: maximum intensity, normalized using furimazine (Q-1) as a reference": 1.04, "V3: area under the curve for ten minutes, normalized using furimazine (Q-1) as a reference": 1.02, "V4: area under the curve for two hours, normalized using furimazine (Q-1) as a reference": 0.97}, {"smiles": "O=c1c(Cc2ccc(C(F)(F)F)o2)nc2c(Cc3ccccc3)[nH]c(-c3ccccc3)cn1-2", "note": "[Q-28, 8-benzyl-6-phenyl-2-((5-(trifluoromethyl)furan-2-yl)methyl)imidazo[1,2-a]pyrazin-3(7H)-one]", "V1: maximum intensity, normalized using furimazine (Q-1) as a reference": 1.31, "V3: area under the curve for ten minutes, normalized using furimazine (Q-1) as a reference": 1.11, "V4: area under the curve for two hours, normalized using furimazine (Q-1) as a reference": 0.62}, {"smiles": "O=c1c(Cc2ccccc2)nc2c(Cc3ccccc3)[nH]c(-c3c(F)cccc3F)cn1-2", "note": "[Q-29, 2,8-dibenzyl-6-(2,6-difluorophenyl)imidazo[1,2-a]pyrazin-3(7H)-one]", "V1: maximum intensity, normalized using furimazine (Q-1) as a reference": 1.86, "V3: area under the curve for ten minutes, normalized using furimazine (Q-1) as a reference": 1.48, "V4: area under the curve for two hours, normalized using furimazine (Q-1) as a reference": 0.55}, {"smiles": "Cc1ccc(Cc2nc3c(Cc4ccccc4)[nH]c(-c4ccccc4F)cn-3c2=O)o1", "note": "[Q-34, 8-benzyl-6-(2-fluorophenyl)-2-((5-methylfuran-2-yl)methyl)imidazo[1,2-a]pyrazin-3(7H)-one]", "V1: maximum intensity, normalized using furimazine (Q-1) as a reference": 2.17, "V3: area under the curve for ten minutes, normalized using furimazine (Q-1) as a reference": 1.89, "V4: area under the curve for two hours, normalized using furimazine (Q-1) as a reference": 1.13}, {"smiles": "O=c1c(Cc2ccc(C3CC3)o2)nc2c(Cc3ccccc3)[nH]c(-c3ccccc3)cn1-2", "note": "[Q-36, 8-benzyl-2-((5-cyclopropylfuran-2-yl)methyl)-6-phenylimidazo[1,2-a]pyrazin-3(7H)-one]", "V1: maximum intensity, normalized using furimazine (Q-1) as a reference": 1.74, "V3: area under the curve for ten minutes, normalized using furimazine (Q-1) as a reference": 1.64, "V4: area under the curve for two hours, normalized using furimazine (Q-1) as a reference": 0.83}, {"smiles": "O=c1c(Cc2cccc(F)c2)nc2c(Cc3ccccc3)[nH]c(-c3ccccc3)cn1-2", "note": "[Q-41, 8-benzyl-2-(3-fluorobenzyl)-6-phenylimidazo[1,2-a]pyrazin-3(7H)-one]", "V1: maximum intensity, normalized using furimazine (Q-1) as a reference": 1.49, "V3: area under the curve for ten minutes, normalized using furimazine (Q-1) as a reference": 1.28, "V4: area under the curve for two hours, normalized using furimazine (Q-1) as a reference": 0.74}, {"smiles": "CCc1ccc(Cc2nc3c(Cc4ccccc4)[nH]c(-c4ccccc4F)cn-3c2=O)o1", "note": "[Q-51, 8-benzyl-2-((5-ethylfuran-2-yl)methyl)-6-(2-fluorophenyl)imidazo[1,2-a]pyrazin-3(7H)-one]", "V1: maximum intensity, normalized using furimazine (Q-1) as a reference": 2.59, "V3: area under the curve for ten minutes, normalized using furimazine (Q-1) as a reference": 2.33, "V4: area under the curve for two hours, normalized using furimazine (Q-1) as a reference": 1.19}, {"smiles": "Cc1ccc(Cc2nc3c(Cc4ccccc4)[nH]c(-c4cccc(F)c4)cn-3c2=O)o1", "note": "[Q-54, 8-benzyl-6-(3-fluorophenyl)-2-((5-methylfuran-2-yl)methyl)imidazo[1,2-a]pyrazin-3(7H)-one]", "V1: maximum intensity, normalized using furimazine (Q-1) as a reference": 2.73, "V3: area under the curve for ten minutes, normalized using furimazine (Q-1) as a reference": 2.32, "V4: area under the curve for two hours, normalized using furimazine (Q-1) as a reference": 1.22}, {"smiles": "O=c1c(Cc2ccccc2F)nc2c(Cc3ccccc3)[nH]c(-c3ccccc3)cn1-2", "note": "[Q-56, 8-benzyl-2-(2-fluorobenzyl)-6-phenylimidazo[1,2-a]pyrazin-3(7H)-one]", "V1: maximum intensity, normalized using furimazine (Q-1) as a reference": 1.84, "V3: area under the curve for ten minutes, normalized using furimazine (Q-1) as a reference": 1.51, "V4: area under the curve for two hours, normalized using furimazine (Q-1) as a reference": 0.7}, {"smiles": "CCc1ccc(Cc2nc3c(Cc4ccccc4)[nH]c(-c4ccccc4)cn-3c2=O)s1", "note": "[Q-58, 8-benzyl-2-((5-ethylthiophen-2-yl)methyl)-6-phenylimidazo[1,2-a]pyrazin-3(7H)-one]", "V1: maximum intensity, normalized using furimazine (Q-1) as a reference": 1.71, "V3: area under the curve for ten minutes, normalized using furimazine (Q-1) as a reference": 1.61, "V4: area under the curve for two hours, normalized using furimazine (Q-1) as a reference": 0.69}, {"smiles": "Cc1cc(Cc2nc3c(Cc4ccccc4)[nH]c(-c4ccccc4F)cn-3c2=O)oc1C", "note": "[Q-61, 8-benzyl-2-((4,5-dimethylfuran-2-yl)methyl)-6-(2-fluorophenyl)imidazo[1,2-a]pyrazin-3(7H)-one]", "V1: maximum intensity, normalized using furimazine (Q-1) as a reference": 2.13, "V3: area under the curve for ten minutes, normalized using furimazine (Q-1) as a reference": 1.97, "V4: area under the curve for two hours, normalized using furimazine (Q-1) as a reference": 0.78}, {"smiles": "O=c1c(Cc2ccccc2)nc2c(Cc3ccccc3F)[nH]c(-c3ccccc3)cn1-2", "note": "[Q-72, 2-benzyl-8-(2-fluorobenzyl)-6-phenylimidazo[1,2-a]pyrazin-3(7H)-one]", "V1: maximum intensity, normalized using furimazine (Q-1) as a reference": 1.49, "V3: area under the curve for ten minutes, normalized using furimazine (Q-1) as a reference": 1.49, "V4: area under the curve for two hours, normalized using furimazine (Q-1) as a reference": 0.85}]}]}
